Reference: PubChem BioAssay AID1918931 (Molecular Pharmacology Branch, DTP, NCI, 2023)

System: 138582-337-R-J1-PDC complex spheroid viability
Assay: Anticancer human tumor 138582-337-R-J1-PDC patient-derived Merkel cell tumor cell line growth inhibition
Details: for IC50: curve of first compound; for viability, T/C: stronger effect = lower value
Description: Multicellular complex tumor spheroid response to LSD1 Inhibitor Iadademstat in combination with a variety of drugs and investigational agents in selected tumor cell lines
The current study was undertaken to assess response to LSD1 inhibitors in combination with standard-of-care drugs and investigational agents in solid tumor complex spheroid models as well as in the K-562 leukemia. Complex spheroids include a stromal component modeled by human endothelial cells (HUVEC) and fibroblasts modeled by human mesenchymal stem cells (MSCs). The concentration ranges selected for each drug and investigational agent were based upon clinically achievable concentrations if the clinical Cmax of the agent was known.
Compounds. The drugs and investigational agents used in this study are listed on Table 1. All of the agents used, including staurosporine (NSC755774) and gemcitabine (NSC613327), were obtained from the Developmental Therapeutics Program, NCI. FDA-approved anticancer drugs are available from the NCI at http://dtp.nci.nih.gov/branches/dscb/oncology_drugset_explanation.html. Drugs and investigational agents were >95% pure by proton nuclear magnetic resonance (NMR) and liquid chromatography/mass spectrometry (LC/MS). Stock solutions were prepared at 400x in DMSO, stored at -70 degrees C, and diluted in fresh medium prior to their use. The final concentration of DMSO in cell culture wells never exceeded 0.25% (v/v). The FDA-approved anticancer drug set is available from the Developmental Therapeutics Program at https://dtp.cancer.gov/organization/dscb/obtaining/available_plates.htm. All drugs and investigational agents were tested over a range starting from a high concentration at or near the clinical Cmax and decreasing in half-log increments. If the clinical Cmax for an agent had not been determined, the highest concentration tested was 10 microM.
Cell Lines. The patient-derived cancer cell (PDC) lines: 292921-168-R-J2-PDC, K24384-001-R-PDC, and 521955-158-R2-J5-PDC pancreatic carcinomas, 556581-035-R-J1 ovarian carcinoma, 324938-238-R-J1-PDC, 855422-203-R-J1-PDC and 883617-216-R-J1-PDC urothelial bladder carcinomas, 743489-274-T-PDC renal cell carcinoma, 138582-R-J1 Merkel cell tumor, K60290-347-R-J1 and K57222-313-R-J1-PDC glioblastomas, 653999-131-R-J2-PDC, LG0703-F948-PDC, and 349418-098-R-PDC non-small cell lung carcinomas, 885512-296-R-J2-PDC, 171881-019-R-J1-PDC breast carcinomas and 186277-243-T-J2-PDC and 233499-124-R-J2-PDC colon carcinomas were obtained from the NCI Patient-Derived Models Repository (PDMR, https://pdmr.cancer.gov). The established cell lines NCI/ADR-RES (RRID:CVCL_14520 and OVCAR-5 (RRID:CVCL_1628) ovarian carcinomas, 786-O (RRID:CVCL_1051) and A498 (RRID:CVCL_A498) renal cell carcinoma, NCI-H211 (ATCC, cat. CRL-5824; RRID:CVCL_1529), NCI-H196 (ATCC, cat. CRL-5823, RRID:CVCL_1509), SW 1271 (ATCC, cat. CRL-2177, RRID:CVCL_1716) and NCI-H1876 (ATCC, cat. CRL-5902, RRID:CVCL_1503) small cell lung carcinomas, MDA-MB-231 (RRID:CVCL_0062) and MDA-MB-468 (RRID:CVCL_0419)breast carcinomas (10-12). Pooled donor human umbilical vein endothelial cells (HUVEC, Lonza, cat. CC-2519) and human mesenchymal stem cells (hMSC, Lonza, cat. PT-2501) were purchased from Lonza (Walkersville, MD).
Cell Culture. All cells were maintained in an incubator at 37 degrees C and 5% CO2 with 95% humidity. The PDC lines were cultured according to standard operating procedures established by the NCI PDMR (https://pdmr.cancer.gov). Briefly all PDCs were thawed and cultured in Matrigel-coated flasks prepared with a working solution of 1X Ham's F-12 nutrient mix, without supplementation (Invitrogen, Waltham, MA, cat. 11765054), 100 U/mL penicillin-streptomycin (Invitrogen, cat. 15140122), and 2.5% Matrigel (Corning Inc., Corning, NY, cat. 354248) for the first three passages. […]
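Also: spheroids exposed to agents for 7 days.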
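For viability, T/C in this document: 100% = DMSO vehicle control viability.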

COc1cc(C2c3cc4c(cc3C(OC3OC5COC(C)OC5C(O)C3O)C3COC(=O)C23)OCO4)cc(OC)c1O (stereo not given) + NC1CC1c1ccc(-c2cccc(O)c2)cc1 showed an IC50 (second compound 0.1 µM) of 0.762 µM, an IC50 (second compound 0.316 µM) of 0.69 µM and an IC50 (second compound 1 µM) of 0.559 µM. It also gave an IC50 (second compound 3.16 µM) of 0.767 µM, an IC50 (second compound 10 µM) of 0.265 µM and a viability, T/C (second compound 0.1 µM, first compound 0.00949 µM) of 60.8%. It also gave a viability, T/C (second compound 0.1 µM, first compound 0.03 µM) of 72.3%, a viability, T/C (second compound 0.1 µM, first compound 0.0949 µM) of 63% and a viability, T/C (second compound 0.1 µM, first compound 0.3 µM) of 48.5%. For the same molecule, the viability, T/C (second compound 0.1 µM, first compound 0.949 µM) was 52.9%, the viability, T/C (second compound 0.1 µM, first compound 3 µM) was 36.7% and the viability, T/C (second compound 0.316 µM, first compound 0.00949 µM) was 67.1%. For the same molecule, the viability, T/C (second compound 0.316 µM, first compound 0.03 µM) was 69.8%, the viability, T/C (second compound 0.316 µM, first compound 0.0949 µM) was 63.1% and the viability, T/C (second compound 0.316 µM, first compound 0.3 µM) was 51.1%. For the same molecule, the viability, T/C (second compound 0.316 µM, first compound 0.949 µM) was 52.3%, the viability, T/C (second compound 0.316 µM, first compound 3 µM) was 29.9% and the viability, T/C (second compound 1 µM, first compound 0.00949 µM) was 76.8%. The viability, T/C (second compound 1 µM, first compound 0.03 µM) was 75.9%, the viability, T/C (second compound 1 µM, first compound 0.0949 µM) was 60.6% and the viability, T/C (second compound 1 µM, first compound 0.3 µM) was 53.2%. It also gave a viability, T/C (second compound 1 µM, first compound 0.949 µM) of 45%, a viability, T/C (second compound 1 µM, first compound 3 µM) of 40.7% and a viability, T/C (second compound 3.16 µM, first compound 0.00949 µM) of 69.7%. For the same molecule, the viability, T/C (second compound 3.16 µM, first compound 0.03 µM) was 75.9%, the viability, T/C (second compound 3.16 µM, first compound 0.0949 µM) was 65.9% and the viability, T/C (second compound 3.16 µM, first compound 0.3 µM) was 51.8%. The viability, T/C (second compound 3.16 µM, first compound 0.949 µM) was 53.1%, the viability, T/C (second compound 3.16 µM, first compound 3 µM) was 31.6% and the viability, T/C (second compound 10 µM, first compound 0.00949 µM) was 71.2%. The viability, T/C (second compound 10 µM, first compound 0.03 µM) was 77.3%, the viability, T/C (second compound 10 µM, first compound 0.0949 µM) was 58.4% and the viability, T/C (second compound 10 µM, first compound 0.3 µM) was 50.1%. The viability, T/C (second compound 10 µM, first compound 0.949 µM) was 41.4% and the viability, T/C (second compound 10 µM, first compound 3 µM) was 37%.

For Nc1ncn(C2CC(O)C(CO)O2)c(=O)n1 (stereo not given) + NC1CC1c1ccc(-c2cccc(O)c2)cc1, the IC50 (second compound 0.1 µM) was > 1 µM, the IC50 (second compound 0.316 µM) was > 1 µM and the IC50 (second compound 1 µM) was > 1 µM. For the same molecule, the IC50 (second compound 3.16 µM) was > 1 µM, the IC50 (second compound 10 µM) was > 1 µM and the viability, T/C (second compound 0.1 µM, first compound 0.00316 µM) was 74%. It also gave a viability, T/C (second compound 0.1 µM, first compound 0.01 µM) of 92%, a viability, T/C (second compound 0.1 µM, first compound 0.0316 µM) of 94.5% and a viability, T/C (second compound 0.1 µM, first compound 0.1 µM) of 85.7%. The viability, T/C (second compound 0.1 µM, first compound 0.316 µM) was 77.8%, the viability, T/C (second compound 0.1 µM, first compound 1 µM) was 75.3% and the viability, T/C (second compound 0.316 µM, first compound 0.00316 µM) was 82.3%. The viability, T/C (second compound 0.316 µM, first compound 0.01 µM) was 98.7%, the viability, T/C (second compound 0.316 µM, first compound 0.0316 µM) was 108% and the viability, T/C (second compound 0.316 µM, first compound 0.1 µM) was 85.7%. The viability, T/C (second compound 0.316 µM, first compound 0.316 µM) was 85.3%, the viability, T/C (second compound 0.316 µM, first compound 1 µM) was 76.6% and the viability, T/C (second compound 1 µM, first compound 0.00316 µM) was 75.8%. The viability, T/C (second compound 1 µM, first compound 0.01 µM) was 109%, the viability, T/C (second compound 1 µM, first compound 0.0316 µM) was 98.1% and the viability, T/C (second compound 1 µM, first compound 0.1 µM) was 88.5%. The viability, T/C (second compound 1 µM, first compound 0.316 µM) was 83%, the viability, T/C (second compound 1 µM, first compound 1 µM) was 84.9% and the viability, T/C (second compound 3.16 µM, first compound 0.00316 µM) was 67.7%. The viability, T/C (second compound 3.16 µM, first compound 0.01 µM) was 119%, the viability, T/C (second compound 3.16 µM, first compound 0.0316 µM) was 113% and the viability, T/C (second compound 3.16 µM, first compound 0.1 µM) was 89.6%. It also gave a viability, T/C (second compound 3.16 µM, first compound 0.316 µM) of 87.8%, a viability, T/C (second compound 3.16 µM, first compound 1 µM) of 80.1% and a viability, T/C (second compound 10 µM, first compound 0.00316 µM) of 85.8%. The viability, T/C (second compound 10 µM, first compound 0.01 µM) was 99.2%, the viability, T/C (second compound 10 µM, first compound 0.0316 µM) was 118% and the viability, T/C (second compound 10 µM, first compound 0.1 µM) was 106%. It also gave a viability, T/C (second compound 10 µM, first compound 0.316 µM) of 113% and a viability, T/C (second compound 10 µM, first compound 1 µM) of 88.4%.
